Consider five compounds from patent US4638009A, “Derivatives of 3-pyrrolidinopropiophenone and a process for preparation thereof” (Hokuriku Pharmaceutical Co., Ltd., priority 1984, dated 1987).

Data set [1] relates to nicotine-induced convulsion. The data set can be described thus: Activity on nicotine-induced convulsion. It is filed as in vivo, male ddY mice. The conditions noted are these: compound 25 mg/kg p.o., nicotine tartrate 3 mg/kg i.v. 15 min later, n=5; for mortality: dead animals because of the convulsions. As to the method: 2. Activity on nicotine-induced convulsion
Male ddY mice 5 weeks old were used with 5 animals in a group. The compounds were administered per os at a dose of 25 mg/kg. After 15 minutes of drug administration, Nicotine tartarate was administered intravenously at an amount of 3 mg/kg and the tonic convulsions and dead animals because of the convulsions have been measured. The effect of the compounds has been indicated by percentage of appearance of tonic convulsion and the mortality.

The subject of data set [2] is oxotremorine-induced tremor. The data set can be described thus: Effect on oxotremorine-induced tremor. Type of data set: in vivo, male ddY mice. The conditions noted are these: 100 mg/kg p.o., oxotremorine 1 mg/kg i.p. 15 min later, 0=absent to 5=lack of righting reflex; for tremor score, 5 min: passage of time 5 min; for tremor score, 10 min: passage of time 10 min; for tremor score, 15 min: passage of time 15 min; for tremor score, 20 min: passage of time 20 min; for tremor score, 30 min: passage of time 30 min. As to the method:
3. Effect on oxotremorine-induced tumor
Male ddY mice 5 weeks old were used with 5 animals in a group. The compounds were administrated per os at a dose of 100 mg/kg and after 15 minutes oxotremorine was intraperitoneally administered at dose of 1 mg/kg. The strength of the induced tremor was observed by the method of Suzuki et al (Folia Pharmacologica Japonica, 83, 127(1983) and scored up with passage of time as follows:
4=severe, 5=lack of righting reflex.

Another data set can be described thus: in vivo. To be noted: mouse. As to the method:
Male ddY mice 5 weeks old were used with 5 animals at a group. The compounds were administrated orally with each dosage. LD50 was determined by the Probit method from dead animals dying within 7 days.

For data set [3] the following is noted: versus Tolperisone; cited from earlier work.
The conditions of data set [4]: cited from earlier work; for side effect (prior art): in vivo.

Counter-ions that a name gives are not always drawn.

The mortality is the share of the test organisms that died. Read a low mortality as a weak lethal effect. Broadly, the LD50 is the dose at which mortality reaches 50%. Low readings indicate greater toxicity, high ones lower toxicity.

As for `CCCCc1ccc(C(=O)C(C)CN2CCCC2)cc1` (stereo not drawn) [Compound 1, 4'-n-Butyl-2-methyl-3-pyrrolidinopropiophenone], in data set [1], the “appearance of tonic convulsion” value stood at 20% and the mortality was determined as 40%. Further, in data set [2], the “tremor score, 5 min” value was found to be 0; the “tremor score, 10 min” value is reported as 0.4; the “tremor score, 15 min” value stood at 0.4; the “tremor score, 20 min” value amounted to 0.9. Further, in data set [2], the “tremor score, 30 min” value was 0.8. The compound also had an LD50 at 168 h in the data set “in vivo” (oral, deaths within 7 days, Probit method, n=5 per group) of 520 mg/kg.

On to `CCc1ccc(C(=O)C(C)CN2CCCC2)cc1` (stereo not drawn) [Compound 2, 4'-Ethyl-2-methyl-3-pyrrolidinopropiophenone], for which, in data set [1], the “appearance of tonic convulsion” value was determined as 40% and the mortality is 60%. In addition, in data set [2], the “tremor score, 5 min” value is on record as 0; the “tremor score, 10 min” value is 0.4; the “tremor score, 15 min” value was 0.3; the “tremor score, 20 min” value is listed as 0.4. Further, the “tremor score, 30 min” value in data set [2] is 0.4.

For the compound `CCc1ccc(C(=O)C(C)CN2CCCCC2)cc1` (stereo not drawn) [Eperisone], the “muscle relaxation activity of Eperisone (prior art)” value in data set [3] is on record as “improvement in muscle relaxation activity”. For the same compound, the “toxicity (prior art)” value in data set [4] (Eperisone versus Tolperisone) is listed as “just the same strong toxicity as Tolperisone”. Besides, in data set [4], the “side effect (prior art)” value is “hepatic and kidney function disorder”.

Take `CCc1ccc(C(=O)C(C)CN2CCCCC2)cc1` (stereo not drawn) [Reference Drug, Eperisone hydrochloride, reference compound]: in data set [1], the “appearance of tonic convulsion” value turned out to be 60% and the mortality was found to be 100%. Besides, in data set [2], the “tremor score, 5 min” value amounted to 0; the “tremor score, 10 min” value is 0.4; the “tremor score, 15 min” value was 0.3; the “tremor score, 20 min” value is 0.2. The “tremor score, 30 min” value in data set [2] amounted to 0. Besides, the 50% lethal dose (LD50) at 168 h in the data set “in vivo” (po) came to 332 mg/kg.

For the compound `Cc1ccc(C(=O)C(C)CN2CCCCC2)cc1` (stereo not drawn) [Tolperisone], in data set [4], the “side effect (prior art)” value is recorded as “hepatic functional disorder”.
